In ChEMBL document CHEMBL1201862, “PubChem BioAssay data set” (2004):
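These data come from cells grown in 96-well plates and exposed to compound for 48 hours at five concentrations. GI50 marks 50% less growth.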 Active and inactive are the calls of the source. Cut-off read from the data, not from the text of the source: active = GI50 up to about 1.1 µM and inactive = higher.

How the values were obtained:
Assay in all cases: inhibition of tumour cell growth, NCI panel, 48 h
SK-MEL-5 = test system: SK-MEL-5
SK-OV-3 = test system: SK-OV-3
UACC-257 = test system: UACC-257
SK-MEL-2 = test system: SK-MEL-2
U-251 = test system: U-251
PC-3 = test system: PC-3
MDA-MB-231 = test system: MDA-MB-231
786-0 = test system: 786-0
HOP-92 = test system: HOP-92
NCI-H23 = test system: NCI-H23
RXF 393 = test system: RXF 393
OVCAR-4 = test system: OVCAR-4
CAKI-1 = test system: CAKI-1
A549 = test system: A549
SW-620 = test system: SW-620
HT-29 = test system: HT-29
OVCAR-8 = test system: OVCAR-8
Malme-3M = test system: Malme-3M
M14 = test system: M14
HCC 2998 = test system: HCC 2998

Measured: GI50

NCCSc1nc(-c2ccccc2)c(-c2ccccc2)o1
inactive: SK-MEL-5 > 100 µM | SK-OV-3 73.3 µM | UACC-257 41.2 µM | SK-MEL-2 > 100 µM | U-251 > 100 µM | PC-3 > 100 µM | MDA-MB-231 > 100 µM | 786-0 32.1 µM | HOP-92 > 100 µM | NCI-H23 17.7 µM | RXF 393 42.2 µM | OVCAR-4 46.7 µM | CAKI-1 > 100 µM | A549 > 100 µM | SW-620 > 100 µM | HT-29 31.7 µM | OVCAR-8 > 100 µM | Malme-3M > 100 µM | M14 > 100 µM

O=c1c2cc(-c3ccccc3)cnc2sn1-c1ccc(Br)cc1
inactive: SK-OV-3 > 100 µM | UACC-257 > 100 µM | SK-MEL-2 > 100 µM | U-251 > 100 µM | PC-3 > 100 µM | MDA-MB-231 > 100 µM | HCC 2998 > 100 µM | 786-0 > 100 µM | HOP-92 > 100 µM | NCI-H23 > 100 µM | RXF 393 > 100 µM | OVCAR-4 > 100 µM | CAKI-1 > 100 µM | A549 > 100 µM | SW-620 > 100 µM | HT-29 > 100 µM | OVCAR-8 > 100 µM | Malme-3M 51.8 µM | M14 > 100 µM

Fc1ccc(OCc2nc3cc(C(F)(F)F)ccc3nc2-c2ccccc2)cc1
inactive: SK-MEL-5 29.7 µM | UACC-257 > 23.8 µM | SK-MEL-2 > 100 µM | U-251 > 100 µM | PC-3 > 100 µM | MDA-MB-231 > 100 µM | HCC 2998 99.5 µM | 786-0 > 100 µM | HOP-92 > 45.3 µM | NCI-H23 > 100 µM | RXF 393 > 100 µM | OVCAR-4 92 µM | CAKI-1 > 100 µM | A549 > 100 µM | SW-620 > 100 µM | HT-29 21.4 µM | OVCAR-8 > 100 µM | Malme-3M > 58.9 µM | M14 > 94 µM

COc1cc(C2OC[C@@H]3C(=O)OC[C@H]23)cc(O)c1OC (stereo not given in full)
inactive: SK-MEL-5 > 100 µM | SK-OV-3 > 100 µM | UACC-257 > 100 µM | SK-MEL-2 > 100 µM | U-251 > 100 µM | PC-3 > 100 µM | MDA-MB-231 > 100 µM | HCC 2998 > 100 µM | 786-0 > 100 µM | HOP-92 > 100 µM | NCI-H23 > 100 µM | RXF 393 > 100 µM | OVCAR-4 > 100 µM | CAKI-1 > 100 µM | A549 > 100 µM | SW-620 > 100 µM | HT-29 > 100 µM | OVCAR-8 > 100 µM | M14 > 100 µM

Cc1c(-c2ccccn2)ccc2ccccc12
inactive: SK-MEL-5 35.7 µM | SK-OV-3 > 100 µM | UACC-257 > 100 µM | U-251 93.5 µM | PC-3 47.3 µM | MDA-MB-231 44.6 µM | HCC 2998 37.8 µM | 786-0 77.3 µM | HOP-92 23 µM | NCI-H23 90.2 µM | RXF 393 29.1 µM | CAKI-1 45 µM | A549 69.5 µM | SW-620 80.4 µM | HT-29 41.7 µM | OVCAR-8 26.4 µM | Malme-3M 69.7 µM | M14 > 100 µM

C1CSCCCSCCSCCCSC1
inactive: SK-MEL-5 > 100 µM | SK-OV-3 > 100 µM | UACC-257 > 100 µM | SK-MEL-2 > 100 µM | U-251 > 100 µM | PC-3 > 100 µM | MDA-MB-231 > 100 µM | HCC 2998 > 100 µM | 786-0 > 100 µM | HOP-92 > 100 µM | NCI-H23 > 100 µM | RXF 393 > 100 µM | OVCAR-4 > 100 µM | CAKI-1 > 100 µM | A549 > 100 µM | SW-620 > 100 µM | HT-29 > 100 µM | OVCAR-8 > 100 µM | M14 > 100 µM

CCN(CC)CCNc1nc2ccc([N+](=O)[O-])cc2[n+]([O-])n1
inactive: SK-MEL-5 10.5 µM | UACC-257 15.8 µM | SK-MEL-2 15.2 µM | U-251 21.9 µM | PC-3 20.1 µM | MDA-MB-231 15.5 µM | HCC 2998 11.4 µM | 786-0 20.1 µM | HOP-92 32 µM | NCI-H23 18.3 µM | RXF 393 46.7 µM | OVCAR-4 13.7 µM | CAKI-1 41.9 µM | A549 21.1 µM | SW-620 16.2 µM | HT-29 7.91 µM | OVCAR-8 13.5 µM | Malme-3M 1.75 µM | M14 16.2 µM

N=C(N)NCCCC(NC(=O)c1c2ccccc2nc2ccccc12)C(=O)O (stereo not given)
inactive: SK-MEL-5 > 100 µM | SK-OV-3 > 100 µM | UACC-257 > 100 µM | SK-MEL-2 > 100 µM | U-251 > 100 µM | PC-3 > 100 µM | MDA-MB-231 > 100 µM | HCC 2998 > 100 µM | 786-0 > 100 µM | HOP-92 > 100 µM | NCI-H23 > 100 µM | OVCAR-4 > 100 µM | CAKI-1 > 100 µM | A549 > 100 µM | SW-620 > 100 µM | HT-29 > 100 µM | OVCAR-8 > 100 µM | M14 > 100 µM

Fc1cc(C2=Nn3c(COc4ccccc4Cl)nnc3S/C2=C\c2ccc(Cl)cc2)c(Cl)cc1Cl
inactive: SK-MEL-5 3.96 µM | SK-OV-3 19.3 µM | UACC-257 21.8 µM | SK-MEL-2 13.3 µM | U-251 3.2 µM | PC-3 12.3 µM | MDA-MB-231 3.72 µM | HCC 2998 3.6 µM | 786-0 4.23 µM | HOP-92 1.36 µM | NCI-H23 1.96 µM | RXF 393 9.89 µM | OVCAR-4 9.84 µM | CAKI-1 8.02 µM | SW-620 3.54 µM | HT-29 3.18 µM | OVCAR-8 6.03 µM | M14 3.75 µM

COCC1OCCN1C (stereo not given)
inactive: SK-MEL-5 > 100 µM | SK-OV-3 > 100 µM | UACC-257 > 100 µM | SK-MEL-2 > 100 µM | U-251 > 100 µM | PC-3 > 100 µM | MDA-MB-231 > 100 µM | 786-0 > 100 µM | HOP-92 > 100 µM | NCI-H23 > 100 µM | RXF 393 > 100 µM | OVCAR-4 > 100 µM | CAKI-1 > 100 µM | A549 > 100 µM | SW-620 > 100 µM | HT-29 > 100 µM | OVCAR-8 > 100 µM | Malme-3M > 100 µM | M14 > 100 µM

O=[N+]([O-])c1cc2c(cc1/C=N/n1c(CO)nc3ccccc31)OCO2
inactive: SK-MEL-5 > 100 µM | SK-OV-3 > 100 µM | UACC-257 > 100 µM | SK-MEL-2 > 100 µM | U-251 > 100 µM | PC-3 > 100 µM | MDA-MB-231 > 100 µM | 786-0 > 100 µM | HOP-92 > 100 µM | NCI-H23 > 100 µM | RXF 393 > 100 µM | OVCAR-4 > 100 µM | CAKI-1 > 100 µM | A549 > 100 µM | SW-620 > 100 µM | HT-29 > 100 µM | OVCAR-8 > 100 µM | Malme-3M > 100 µM | M14 > 100 µM

O=C(Nc1ccc(Cl)cc1Cl)C1C(=O)OC2(CCCCC2)OC1=O
inactive: SK-MEL-5 2.17 µM | SK-OV-3 10.6 µM | UACC-257 12.1 µM | SK-MEL-2 2.93 µM | U-251 5.32 µM | PC-3 3.45 µM | MDA-MB-231 14.1 µM | HCC 2998 13 µM | 786-0 12.2 µM | HOP-92 6.82 µM | NCI-H23 4.4 µM | RXF 393 5.36 µM | OVCAR-4 9.18 µM | CAKI-1 4.78 µM | A549 4.71 µM | SW-620 5.52 µM | HT-29 11.5 µM | OVCAR-8 5.7 µM | M14 8.77 µM

Nc1[nH]c(=O)[nH]c(=O)c1Cc1cccc(Cl)c1
inactive: SK-OV-3 > 100 µM | UACC-257 51.9 µM | SK-MEL-2 71.9 µM | U-251 > 100 µM | PC-3 52.7 µM | MDA-MB-231 > 100 µM | HCC 2998 56 µM | 786-0 > 100 µM | HOP-92 36.3 µM | NCI-H23 > 100 µM | RXF 393 87.3 µM | OVCAR-4 57.9 µM | CAKI-1 > 100 µM | A549 > 100 µM | SW-620 96.2 µM | HT-29 > 100 µM | OVCAR-8 > 100 µM | Malme-3M > 100 µM | M14 84.9 µM

O=C(NCCO)Nc1c(C(F)(F)F)cc(-c2ccccc2)[nH]c1=O
inactive: SK-MEL-5 > 100 µM | SK-OV-3 > 100 µM | UACC-257 > 100 µM | SK-MEL-2 > 100 µM | U-251 > 100 µM | PC-3 > 100 µM | MDA-MB-231 > 100 µM | HCC 2998 > 100 µM | 786-0 > 100 µM | HOP-92 > 100 µM | NCI-H23 > 100 µM | RXF 393 > 100 µM | OVCAR-4 > 100 µM | CAKI-1 > 100 µM | A549 > 100 µM | SW-620 > 100 µM | HT-29 > 100 µM | OVCAR-8 > 100 µM | M14 > 100 µM

CC1(C)C2CCC3=C(CCC4(C)C5C[C@](C)(C(=O)O)CC[C@]5(C)CC[C@]34C)[C@@]2(C)CC[C@@H]1O (stereo not given in full)
inactive: SK-MEL-5 34.3 µM | SK-OV-3 20.2 µM | U-251 13.1 µM | PC-3 14.8 µM | MDA-MB-231 17.9 µM | HCC 2998 64.9 µM | 786-0 15.9 µM | HOP-92 18.6 µM | NCI-H23 19.3 µM | RXF 393 21.6 µM | OVCAR-4 16.3 µM | CAKI-1 18.9 µM | A549 13.1 µM | SW-620 16.6 µM | HT-29 17.5 µM | Malme-3M 17.1 µM | M14 17.5 µM
